Laboratory results published in publication PMC11302837, “Efficacy of BRAF/MEK-inhibitor therapy for epithelioid glioblastoma with a novel BRAFV600 mutation” (Acta Neuropathologica Communications, 2024).

Tests used:
[1] = parameters: method as in earlier work; settings: serum of patients; ref EMA product information sheet, Delord et al., 2017 [29], Sullivan et al., 2020 [30]; cited from earlier work
[2] = Tolerability of oral regimen in the patient; format: in vivo, human; settings: oral hard capsules and tablets; quantity and size
Protocol: Based on the promising results of the mutational and IHC analyses, a targeted therapy with the BRAF inhibitor, encorafenib and the MEK inhibitor, binimetinib was initiated. The dosage mirrored that of MM with 450 mg of encorafenib (i.e. 6 × 75 mg) administrated daily, and 45 mg of binimetinib (i.e. 3 × 15 mg), administrated twice daily. […] Consequently, after three days, the regimen was modified.

[3] = Concentration of BRAF/MEK inhibitors in patient CSF by LC-MS/MS; format: in vivo, human; settings: for CSF concentration: CSF via EVD; for Kp: human, CSF/serum, oral
Protocol: (§1) Determination of BRAF/MEK inhibitors concentration in plasma and CSF of patients by liquid chromatography–tandem mass spectrometry
(§2) Native CSF samples were used with a standard addition method for quantification. A volume of 20 µl was always injected into the Ultimate 3000 HPLC system from Thermo Scientific system coupled to an API4000 tandem mass spectrometer (ABSciex, Darmstadt, Germany). The BRAF and MEK inhibitors encorafenib, binimetinib, dabrafenib and trametinib were separated by reversed phase chromatography with a Synergi 4 μm Hydro-RP 80 A, 150 × 3 mm column (Phenomenex, Torrance, USA).
(§3) The temperature of column was constantly at 40 °C. Determination of the analytes was performed using the multiple reaction monitoring mode with nitrogen as collision gas. For positive ionization, a capillary voltage of 4000 V (positive ion mode) was used. Quantification was performed by the peak area method, and a weighted (1/x) regression of first order yielded the concentrations.
(§4) Moreover, comprehensive analyses of the patients’ CSF and plasma using liquid chromatography-tandem mass spectrometry were performed to determine the concentrations of various MAPKi two, four, and five days after regimen modification, i.e. five, seven, and eight days following initiation of the targeted therapy. There was a clear accumulation of all MAPKi in the patient’s plasma (Table 2). The concentrations determined reside within the therapeutic range of the maximum and minimum plasma concentrations published (Table 2).

[4] = Concentration of BRAF/MEK inhibitors in patient serum/plasma by LC-MS/MS; format: in vivo, human; settings: encorafenib/binimetinib given day 1-3 then discontinued, dabrafenib/trametinib from day 4
Protocol: as §1
Sample preparation of plasma and CSF samples was different. Twenty microliters of plasma were diluted with 180 µL of water and mixed with 200 µL formic acid (1%). An automated solid phase extraction with an ASPEC XL (Gilson, Middleton, USA) and Oasis HLB (Waters, Milford, USA) cartridges were used. The cartridges were conditioned, loaded, washed and finally eluted with 1 mL methanol. The SPE extracts were evaporated to dryness and reconstituted with 200 µL. For quantification, 10-point external calibration curves in blank plasma at the range from 1.95 to 1000 µg/L for all four substances were freshly prepared and measured in parallel.
as §2, §3, §4

[5] = day 5 after treatment initiation
[6] = day 7 after treatment initiation
[7] = day 8 after treatment initiation

Structure (SMILES) | C max (maximum plasma concentration) [1] [ng/mL] | C min (minimum plasma concentration) [1] [ng/mL] | Tolerability by the patient [2] | CSF concentration [3, 5] [ng/mL] | CSF concentration [3, 6] [ng/mL] | CSF concentration [3, 7] [ng/mL] | Kp [3, 5] | Kp [3, 6] | Kp [3, 7] | Serum concentration [4, 5] [ng/mL] | Serum concentration [4, 6] [ng/mL] | Serum concentration [4, 7] [ng/mL]
COC(=O)N[C@@H](C)CNc1nccc(-c2cn(C(C)C)nc2-c2cc(Cl)cc(NS(C)(=O)=O)c2F)n1 [Encorafenib, encorafenib] | 3800 | 13.9 | poorly tolerated | 2.4 | 1.1 | 1.1 | 0.178 | 0.193 | 0.18 | 13.5 | 5.7 | 6.1
CC(C)(C)c1nc(-c2cccc(NS(=O)(=O)c3c(F)cccc3F)c2F)c(-c2ccnc(N)n2)s1 [Dabrafenib, dabrafenib] | 1478 | 26 | better tolerated | 5.4 | 6.1 | 1.5 | 0.017 | 0.032 | 0.016 | 322.9 | 188.0 | 94.6
CC(=O)Nc1cccc(-n2c(=O)n(C3CC3)c(=O)c3c(Nc4ccc(I)cc4F)n(C)c(=O)c(C)c32)c1 [Trametinib, trametinib] | 22.2 | 12.1 | better tolerated | 0.0 | 0.3 | 0.4 | 0 | 0.039 | 0.043 | 8.8 | 7.7 | 9.2
Cn1cnc2c(F)c(Nc3ccc(Br)cc3F)c(C(=O)NOCCO)cc21 [Binimetinib, binimetinib] | 654 | 51.4 | poorly tolerated | 10.3 | 5.3 | 5.0 | 0.107 | 0.277 | 0.362 | 96.5 | 19.1 | 13.8
